Laboratory results taken from patent US8609608B2, “Antimicrobial peptides” (C3 Jian, Inc., priority 2007, dated 2013).
Where no end group is shown, it is not given here.

What was measured:
[1] = system: clinical isolates of S. mutans; format: cell-based, Streptococcus mutans
Experimental: (§1) S. mutans clinical isolates UA140 (32), UA159 (1), T8 (33), ATCC 25175, GS5 (Kuramitsu and Ingersoll (1977) Infect Immun., 17: 330-337), and all gram-positive strains listed below (see Table 9) were grown under anaerobic conditions in brain heart infusion or Todd-Hewitt (TH) broth (Difco) overnight at 37° C. prior to use (Eckert et al. (2006) Antimicrob. Agents Chemother. 50: 3651-3657). Veillonella atypica PK1910 was grown in Veillonella medium (Egland et al. (2004) Proc. Natl. Acad. Sci., USA, 101: 16917-16922). All strains were grown in an anaerobic atmosphere of 80% N2, 10% CO2, and 10% H2.
(§2) Antibacterial growth inhibition assays were performed using sterile 96-well plates in a final volume of 100 μl, TH or Veillonella medium as described previously (Qi et al. (2005) FEMS Microbial Lett. 251: 321-326). Briefly, bacterial cells were grown overnight to an optical density at 600 nm of 0.75 to 0.8 (corresponding to 1×10^8 CFU/ml) and then diluted to 1×10^5 CFU/ml in broth and aliquoted onto plates. An appropriate volume of peptide stock solution (5 to 20 mg/ml, in water or methanol, depending on solubility) was then added to the first column of the plate to give 500 μg/ml or 512 μg/ml, followed by serial 1:2 dilutions across the plate to give wells containing peptides ranging from 500 to 1.95 μg/ml or 512 to 2 μg/ml. Methanol alone was also added to control for the effects of the solvent. The plates were then incubated at 37° C. under anaerobic conditions for 16 to 20 h without shaking, and the MIC was determined as the concentration of peptide present in the last clear well after visual inspection. Up to 5% (vol/vol) methanol was found not to be antimicrobial (data not shown). MICs were determined in triplicate for all bacteria.

[2] = system: S. gordonii Challis DL1; format: cell-based, Streptococcus gordonii
Experimental: as §1, §2

[3] = system: S. mitis ATCC 903; format: cell-based, Streptococcus mitis
Experimental: as §1, §2

[4] = system: S. sanguinis NY101; format: cell-based, Streptococcus sanguinis
Experimental: as §1, §2

[5] = system: L. casei ATCC 4646; format: cell-based, Lactobacillus casei
Experimental: as §1, §2

[6] = system: V. atypica PK1910; format: cell-based, Veillonella atypica
Experimental: as §1, §2

[7] = system: P. aeruginosa; assay: MIC against P. aeruginosa; format: cell-based, Pseudomonas aeruginosa
[8] = system: S. aureus
[9] = system: E. faecalis
[10] = system: L. casei

Q: How did the “MIC (fusion library peptides)” value ([1]; clinical isolates of) turn out when “LKRFLKWFKRFGGGRWRWRWF-NH2 [FBRW-16, LKRFLKWFKRF-GGG-RWRWRWF*]” was run?
A: 4 to 16 µg/mL

Q: And the “MIC S. gordonii Challis DL1” value [2]?
A: 64 µg/mL

Q: What about the “MIC S. mitis ATCC 903” value [3] of the same substance?
A: 64 µg/mL

Q: What about the “MIC S. sanguinis NY101” value [4] of the same substance?
A: 16 µg/mL

Q: What about the “MIC L. casei ATCC 4646” value [5] of the same substance?
A: 16 µg/mL

Q: And the “MIC V. atypica PK1910” value [6]?
A: 8 µg/mL

Q: What does the source list for “IKQLLHFFQRF-NH2 [Peptide B-38, IKQLLHFFQRF*]”?
A: activity against S. mutans by MIC, in words [1]: active but to a lesser degree than B-33 or B-34; MIC ([1]; clinical isolates of): 24 µg/mL; MIC S. gordonii Challis DL1 [2]: 32 µg/mL; MIC S. mitis ATCC 903 [3]: 64 µg/mL; MIC S. sanguinis NY101 [4]: 64 µg/mL; MIC L. casei ATCC 4646 [5]: 32 µg/mL; MIC V. atypica PK1910 [6]: 64 µg/mL

Q: What does the source list for “RWRWRWFGGGLKRFLKWFKRF-NH2 [FBRW-24, RWRWRWF-GGG-LKRFLKWFKRF*]”?
A: MIC (fusion library peptides) ([1]; clinical isolates of): 8 µg/mL; MIC S. gordonii Challis DL1 [2]: 32 µg/mL; MIC S. mitis ATCC 903 [3]: 64 µg/mL; MIC S. sanguinis NY101 [4]: 16 µg/mL; MIC L. casei ATCC 4646 [5]: 8 µg/mL; MIC V. atypica PK1910 [6]: 16 µg/mL

Q: How did the “MIC S. mutans” value ([1]; clinical isolates of) turn out when “LILKFLFKFVF [Peptide S3L8-32, LILKFLFKFVF]” was run?
A: 31 µg/mL

Q: And the “MIC P. aeruginosa” value [7]?
A: >125 µg/mL

Q: What about the “MIC S. aureus” value [8] of the same substance?
A: 16 µg/mL

Q: What about the “MIC E. faecalis” value [9] of the same substance?
A: 16 µg/mL

Q: What about the “MIC L. casei” value [10] of the same substance?
A: 16 µg/mL

Q: Which results are given for “FVFRHKWVWKHRFLF [Peptide S3L8-1, FVFRHKWVWKHRFLF]”?
A: MIC S. mutans ([1]; clinical isolates of): 16 µg/mL; MIC P. aeruginosa [7]: >125 µg/mL; MIC S. aureus [8]: >125 µg/mL; MIC E. faecalis [9]: 32 µg/mL; MIC L. casei [10]: 62.5 µg/mL

Q: With FKFLFKF [Peptide S3L8-42, FKFLFKF] as the substance, how does the “MIC S. mutans” value ([1]; clinical isolates of) read?
A: >125 µg/mL

Q: And the “MIC P. aeruginosa” value [7]?
A: >125 µg/mL

Q: What about the “MIC S. aureus” value [8] of the same substance?
A: >125 µg/mL

Q: What about the “MIC E. faecalis” value [9] of the same substance?
A: >125 µg/mL

Q: What about the “MIC L. casei” value [10] of the same substance?
A: >62.5 µg/mL

Q: For “FLFKHLFLHRIFF [Peptide S3L8-16, FLFKHLFLHRIFF]”, which “MIC S. mutans” value ([1]; clinical isolates of) is on record?
A: >125 µg/mL

Q: And the “MIC P. aeruginosa” value [7]?
A: >125 µg/mL

Q: What about the “MIC S. aureus” value [8] of the same substance?
A: >125 µg/mL

Q: And the “MIC E. faecalis” value [9]?
A: >125 µg/mL

Q: What about the “MIC L. casei” value [10] of the same substance?
A: >62.5 µg/mL

Q: How did the “MIC S. mutans” value ([1]; clinical isolates of) turn out when FKFKHKLIF [Peptide S3L8-36, FKFKHKLIF] was run?
A: >125 µg/mL

Q: And the “MIC P. aeruginosa” value [7]?
A: >125 µg/mL

Q: What about the “MIC S. aureus” value [8] of the same substance?
A: >125 µg/mL

Q: And the “MIC E. faecalis” value [9]?
A: >125 µg/mL

Q: And the “MIC L. casei” value [10]?
A: >62.5 µg/mL

Q: With “VIRHVWVRKLF [Peptide S3L8-27, VIRHVWVRKLF]” as the substance, how does the “MIC S. mutans” value ([1]; clinical isolates of) read?
A: 60 µg/mL

Q: What about the “MIC P. aeruginosa” value [7] of the same substance?
A: >125 µg/mL

Q: And the “MIC S. aureus” value [8]?
A: >125 µg/mL

Q: What about the “MIC E. faecalis” value [9] of the same substance?
A: >125 µg/mL

Q: And the “MIC L. casei” value [10]?
A: >62.5 µg/mL

Q: Which “MIC S. mutans” value ([1]; clinical isolates of) does the source give for FKFLFKFLF [Peptide S3L8-38, FKFLFKFLF] here?
A: >125 µg/mL

Q: And the “MIC P. aeruginosa” value [7]?
A: >125 µg/mL

Q: What about the “MIC S. aureus” value [8] of the same substance?
A: >125 µg/mL

Q: What about the “MIC E. faecalis” value [9] of the same substance?
A: >125 µg/mL

Q: What about the “MIC L. casei” value [10] of the same substance?
A: 32 µg/mL

Q: What does the source list for “FLHKHLFKHKLF [Peptide S3L8-18, FLHKHLFKHKLF]”?
A: MIC S. mutans ([1]; clinical isolates of): >125 µg/mL; MIC P. aeruginosa [7]: >125 µg/mL; MIC S. aureus [8]: >125 µg/mL; MIC E. faecalis [9]: >125 µg/mL; MIC L. casei [10]: >62.5 µg/mL

Q: Which results are given for “VFRHRFIHRHVF [Peptide S3L8-19, VFRHRFIHRHVF]”?
A: MIC S. mutans ([1]; clinical isolates of): >125 µg/mL; MIC P. aeruginosa [7]: >125 µg/mL; MIC S. aureus [8]: >125 µg/mL; MIC E. faecalis [9]: >125 µg/mL; MIC L. casei [10]: >62.5 µg/mL

Q: With “FKHKFKHKFIF [Peptide S3L8-30, FKHKFKHKFIF]” as the substance, how does the “MIC S. mutans” value ([1]; clinical isolates of) read?
A: >125 µg/mL

Q: What about the “MIC P. aeruginosa” value [7] of the same substance?
A: >125 µg/mL

Q: What about the “MIC S. aureus” value [8] of the same substance?
A: >125 µg/mL

Q: What about the “MIC E. faecalis” value [9] of the same substance?
A: >125 µg/mL

Q: And the “MIC L. casei” value [10]?
A: >62.5 µg/mL

Q: Which results are given for LKHKLKHKF [Peptide S3L8-35, LKHKLKHKF]?
A: MIC S. mutans ([1]; clinical isolates of): >125 µg/mL; MIC P. aeruginosa [7]: >125 µg/mL; MIC S. aureus [8]: >125 µg/mL; MIC E. faecalis [9]: >125 µg/mL; MIC L. casei [10]: >62.5 µg/mL

Q: Which “MIC S. mutans” value ([1]; clinical isolates of) does the source give for “LKAKIKFKVKLKIKF [Peptide S3L8-11, LKAKIKFKVKLKIKF]” here?
A: 8 µg/mL

Q: What about the “MIC P. aeruginosa” value [7] of the same substance?
A: 32 to 62.5 µg/mL

Q: And the “MIC S. aureus” value [8]?
A: 125 µg/mL

Q: What about the “MIC E. faecalis” value [9] of the same substance?
A: 39 µg/mL

Q: What about the “MIC L. casei” value [10] of the same substance?
A: 3 µg/mL
